We go through eight compounds from patent US10653138B2, “Composition for attracting bed bugs” (London School of Hygiene & Tropical Medicine, priority 2015, dated 2020).

The test has as its system bed bug antennae. As to the kind of experiment: Coupled gas chromatography-electroantennography (GC-EAG) of volatile extract from bed bug-exposed paper. On the set-up: species or system Cimex lectularius. Conditions: for Electrophysiology Auto method: bullet = marked under the Auto method; for Responses Total: males plus females, 20 insects tested; for Responses Females: number of females giving an EAG response to the peak; for Responses Females / Responses Males: volatile extract 1 μL; for Responses Males: number of males giving an EAG response to the peak; for electroantennogram (EAG) response: result in words; for Visual inspection (no of responses) Response: total EAG responses, Table 8. The text has this:
Experimental insects, unless otherwise stated, were mated males and females of C. lectularius that had been fed 7 to 14 days previously on heparinised sheep blood. The electrodes used to make recordings were Ag/AgCl wires (diameter 0.37 mm) inserted into glass pipettes, made from borosilicate glass capillaries (outer diameter 2.0 mm; inner diameter 1.16 mm). The glass pipettes were filled with Ringers solution (7.55 g NaCl, 0.64 g KCl, 0.22 g CaCl2, 1.73 g MgCl2 g, 0.86 g NaHCO3 and 0.61 g Na3PO4 L^−1 water). The bed bug was then chilled on ice for one minute before dissection. Preparations were held in a continuous, humidified, charcoal filtered air flow ([…]) coming from a glass tube, which was positioned 5 mm from the antennal preparation. Once the antennal preparation and EAG equipment were in position the microscope light was switched off.
The GC used was a HP-680N, containing a HP-1 column (30 m×0.32 mm; film thickness, 0.52 μm) with a COC injector, hydrogen carrier gas and a FID. The oven temperature was maintained at 40° C. for two min and then programmed at 5° C. min^−1 to 100° C. and then at 10° C. […] to 250° C. The end of the column was inserted into the centre of the main air flow so that the eluent went over the antennal preparation. […] Amplification of the signals was set at ×10,000. Signals were analysed using the computer-based software package, EAD 2000 (Syntech®, The Netherlands). The volatile extract (1 μL) from an air entrainment of bed bug-exposed papers (see Example 1) was injected onto the column. A solution of n-alkanes (C7-C25, 1 μL of 100 ng μL^−1) in hexane was also analysed to calculate the retention indices (RI) of any EAG-active peaks for comparison with GC and coupled GC-MS traces (Equation 1).
Electroantennographic (EAG) responses from the coupled gas chromatography-electroantennographic (GC-EAG) analysis of the volatile extract collected using air entrainment were determined by visual appearance. Coupled GC-EAG traces were examined visually on a light box to identify EAG responses and match them to peaks on the GC traces. A combination of characteristics including the amplitude and shape of the deflection from the baseline were used to identify EAG responses. For example, an EAG response is usually of greater amplitude than the background noise and it has a characteristic negative deflection followed by a quick positive deflection resulting in a short sharp response often of similar shape and position as the corresponding peak on the GC trace. Responses were matched between males and females separately onto master traces for each sex. The EAG-active peaks were labelled from 1 to 21. Male and female master traces were then overlaid to identify where consistent responses occurred in both sexes. Five or more individuals responding at the same retention time on the GC trace was considered to be a consistent EAG response and the corresponding peak on the GC trace was considered to be EAG-active. Three thresholds were used: greater than 5, greater than 10 or greater than 15 individuals responding to the same GC peak or at the same retention time. The traces were then subjected to manual or automated statistical analysis.

Where [1] appears, read: threshold of individuals responding.

Regarding `CC/C=C/C=C/C(C)=O` (single isomer, unassigned) [(3E,5E)-Octadien-2-one, (3E,5E)-octadien-2-one], the “Electrophysiology Auto method” value is “•”, the “Responses Total” value stood at 13, the “Responses Females” value was found to be 5 and the “Responses Males” value is given as 8. Also, the “electroantennogram (EAG) response” value was “EAG-active” and the “Visual inspection (no of responses) Response” value was found to be 13. Besides, under setting [1], the “Visual inspection (no of responses) >5” value is given as “• (>5)” and the “Visual inspection (no of responses) >10” value is on record as “• (>10)”.
Consider `C=C1C=CC(C(C)C)CC1` (single isomer, unassigned) [β-Phellandrene, β-phellandrene], for which the “Responses Total” value was determined as 11, the “Responses Females” value is 6, the “Responses Males” value was determined as 5 and the “electroantennogram (EAG) response” value is reported as “EAG-active”. In addition, the “Visual inspection (no of responses) Response” value stood at 11. Moreover, under setting [1], the “Visual inspection (no of responses) >5” value is listed as “• (>5)” and the “Visual inspection (no of responses) >10” value is reported as “• (>10)”.
In the case of `CCCCCCCC=O` (single isomer, unassigned) [Octanal, octanal], the “Electrophysiology Auto method” value is “•”, the “Responses Total” value amounted to 19, the “Responses Females” value is recorded as 10 and the “Responses Males” value turned out to be 9. For the same compound, the “electroantennogram (EAG) response” value is recorded as “EAG-active” and the “Visual inspection (no of responses) Response” value turned out to be 19. For the same compound, under setting [1], the “Visual inspection (no of responses) >5” value is “• (>5)”, the “Visual inspection (no of responses) >10” value is “• (>10)” and the “Visual inspection (no of responses) >15” value is “• (>15)”.
For the compound `CCCCCCCCC(=O)O` [Nonanoic acid, nonanoic acid], the “Responses Total” value is 12, the “Responses Females” value was found to be 6, the “Responses Males” value is given as 6 and the “electroantennogram (EAG) response” value was “EAG-active”. Moreover, the “Visual inspection (no of responses) Response” value is reported as 12. For the same compound, under setting [1], the “Visual inspection (no of responses) >5” value is recorded as “• (>5)” and the “Visual inspection (no of responses) >10” value was “• (>10)”.
For `O=Cc1ccccc1` (single isomer, unassigned) [Benzaldehyde, benzaldehyde], the “Responses Total” value turned out to be 8, the “Responses Females” value was 3, the “Responses Males” value worked out at 5 and the “electroantennogram (EAG) response” value is “EAG-active”. Also, the “Visual inspection (no of responses) Response” value worked out at 8. Under setting [1], the “Visual inspection (no of responses) >5” value is reported as “• (>5)”.
As to `CC1=CCC2C(C1)C2(C)C` (single isomer, unassigned) [3-Carene, 3-carene], the “Responses Total” value was found to be 11, the “Responses Females” value stood at 7, the “Responses Males” value was 4 and the “electroantennogram (EAG) response” value is reported as “EAG-active”. Besides, the “Visual inspection (no of responses) Response” value was determined as 11. Besides, under setting [1], the “Visual inspection (no of responses) >5” value is “• (>5)” and the “Visual inspection (no of responses) >10” value is on record as “• (>10)”.
Consider `CCCCCC=O` (single isomer, unassigned) [Hexanal, hexanal], for which the “Responses Total” value is given as 9, the “Responses Females” value is listed as 4, the “Responses Males” value is on record as 5 and the “electroantennogram (EAG) response” value is reported as “EAG-active”. Also, the “Visual inspection (no of responses) Response” value is 9. The “Visual inspection (no of responses) >5” value under setting [1] was “• (>5)”.
In the case of `CCCCCCCC/C=C/C=O` [(E)-2-Undecenal, (E)-2-undecenal], the “Responses Total” value worked out at 9, the “Responses Females” value is recorded as 5, the “Responses Males” value amounted to 4 and the “electroantennogram (EAG) response” value is reported as “EAG-active”. In addition, the “Visual inspection (no of responses) Response” value is reported as 9. For the same compound, the “Visual inspection (no of responses) >5” value under setting [1] was “• (>5)”.
